Data taken from US8852876B2, “Label free biosensors and cells” (Corning Incorporated, priority 2008, dated 2014).

What was measured:
CHO cells = experiment: Biosensor-based cell toxicity (real-time DMR, TM0 resonant peak and band image); parameters: species or system Chinese hamster; settings: for TM0 mode resonance band image: 25 min
From the text: Profiling compounds by virtue of their cytotoxic and anti-proliferative effects is often used to profile potential anticancer agents. One such phenotype is the compromise in plasma membrane integrity when cells are exposed to cytotoxic agents, including dimethyl sulfoxide (DMSO). Using a waveguide-based biosensor technique, the feasibility for monitoring the effect of DMSO on both Chinese hamster ovary (CHO) and A431 cells was examined. Approximately 10×10^5 cells were placed into each well of a Corning Epic LID microplate. These cells were cultured in serum medium for overnight to ensure that the cells became adherent to the substrate surface and reach at least 80% confluence. The response of cells to DMSO at different concentrations (1%, 2%, 5%, 10%, 15%, 18% and 20%) was examined. Higher concentrations of ˜≧25% of DMSO result in bulk index changes which are beyond the maximum dynamic range of the sensor used and the signal was lost. At least two sets of experiments were carried out for each cell line.
Both A431 and CHO-K1 cells were grown in Dulbecco's modified Eagle's medium (DMEM) supplemented with 10% fetal calf serum, 100 μg/ml penicillin, and 100 μg/ml streptomycin. For cell culture, ˜10×10^5 cells, either A431 or CHO-K1, were suspended in 200 μl medium were placed in each well of a 96 well Corning Epic Biosensor microplate, and were cultured at 37° C. in air/5% CO2 for overnight. Before the assays, the cells were washed once with the corresponding medium. During the assays, the cells in 100 μl medium were subject to two 25 μl HBSS buffer solutions containing 20 mM HEPES, pH 7.4, each separated by at least 15 minutes before 50 μl DMSO solution was applied. During all these steps, a parallel angular interrogation system was used to monitor the real time kinetics of cellular responses.
In one embodiment, the present invention provides a method for high throughput screening compound toxicity on cells using optical biosensors, which comprises of: (a) Provide a microplate that there is an optical-based label free biosensor embedded in the bottom of each well; (b) Place cells into each well to cover the biosensor such that the cells attach and reach high confluency onto the surface of the biosensor; (c) Apply a compound solution into the cell medium of each well; (e) Collect optical waveguide lightmode spectra at certain time. Comparing the PWHM of each compound with a control well wherein the cells are not exposed to any compound solution, the toxicity of compounds can be evaluated using the single data point. If necessary, time-dependent PWHM changes can be also recorded to study the kinetics.
In another embodiment, the present invention provides alternative methods to evaluate compound toxicity, which comprises of: (a) Provide a microplate that there is an optical-based label free biosensor embedded in the bottom of each well; (b) Place cells into each well to cover the biosensor such that the cells attach and reach desired confluency onto the surface of the biosensor; (c) Apply a compound solution into the cell medium of each well; (e) Collect images of TM0 mode resonance angular band of the whole sensor area of each well at certain time. Comparing the widths of the resonant bands of sensors that have been treated with a compound solution with that of a control well wherein the cells are not exposed to any compound solution; the toxicity of compounds can be evaluated.

[1] = system: EGF-induced response of quiescent A431 cells; experiment: Effect of compound pretreatment on EGF-induced DMR response; format: cell-based, human; settings: for Effect of pretreatment on 32 nM EGF-induced response: quiescent A431 cells
Experimental: Both A431 and CHO-K1 cells were grown in Dulbecco's modified Eagle's medium (DMEM) supplemented with 10% fetal calf serum, 100 μg/ml penicillin, and 100 μg/ml streptomycin. For cell culture, certain numbers of cells (2×10^5 to 1×10^6), either A431 or CHO-K1, were suspended in […] medium were placed in each well of a 96 well Corning Epic Biosensor microplate, and were cultured at 37° C. in air/5% CO2 for certain time until the cell density reached ˜90% and above (unless specified). The resulted cells were termed as “profilerating” cells. The “quiescent” cells were obtained by culturing the profilerating cells of desired confluencies with a medium containing no or little (˜0.1% fetal bovine serum (FBS)) for at least 16 hours.
During the assays, the cells in 100 μl medium were subject to two 25 μl HBSS buffer containing 20 mM HEPES, pH 7.4, each separated by at least 15 minutes before 50 μl stimulus-containing solution was applied. During all these steps, a parallel angular interrogation system was used to monitor the real time kinetics of cellular responses. For compound effect studies, a modified protocol was used which starts with 50 μl medium, and subject to sequential treatment: 25 μl HBSS buffer twice (each separated by at least 15 minutes), 50 μl compound solution and finally 50 μl stimulus-containing solution.

[2] = target: T1, protease activated receptors PAR1 and PAR2 (Homo sapiens, UniProt P25116); format: cell-based; settings: 40 unit/ml thrombin; modulators 10 μM
T1 construct: A431 cells which endogenously express PAR1 and PAR2; endogenous in cells; host or cells: A431
T1 sequence (P25116 22-425): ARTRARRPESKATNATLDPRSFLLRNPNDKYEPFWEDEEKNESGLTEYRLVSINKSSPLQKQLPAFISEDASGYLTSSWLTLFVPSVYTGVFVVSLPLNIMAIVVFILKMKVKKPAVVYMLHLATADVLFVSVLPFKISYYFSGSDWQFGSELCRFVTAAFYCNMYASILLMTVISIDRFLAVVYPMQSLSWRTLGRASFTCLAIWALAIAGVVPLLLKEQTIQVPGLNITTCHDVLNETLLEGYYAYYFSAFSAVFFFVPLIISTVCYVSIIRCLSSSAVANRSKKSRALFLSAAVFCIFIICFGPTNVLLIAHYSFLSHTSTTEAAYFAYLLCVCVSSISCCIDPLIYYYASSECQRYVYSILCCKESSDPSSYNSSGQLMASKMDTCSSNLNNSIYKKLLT
Experimental: (§1) Human epidermoid carcinoma A431 cells (American Type Cell Culture) were grown in Dulbecco's modified Eagle's medium (DMEM) supplemented with 10% fetal bovine serum (FBS), 4.5 g/liter glucose, 2 mM glutamine, and antibiotics. ˜3-7.5×10^4 cells at passage 3 to 5 suspended in 200 μl the DMEM medium containing 10% FBS were placed in each well of a 96 well microplate, and were cultured at 37° C. under air/5% CO2 until ˜95% confluency was reached (˜2-4 days).
(§2) The compound or PAR agonist solutions were made in 1×HBSS in order to match the refractive index between the cell medium and compound solution, thus minimizing the unwanted effect of bulk index change due to the introduction of compound solution which can temporarily overwhelms any DMR signal as it occurs.

[3] = system: protease activated receptors PAR1 and PAR2; format: cell-based, human; settings: for Effect of pretreatment on trypsin-mediated DMR signal: 100 or 200 nM trypsin, modulators 10 μM
Experimental: as §1, §2

quiescent A431 cells = experiment: H2O2-induced DMR (reactive oxygen species signaling, redox state); format: cell-based, human; settings: for DMR signal: 4 mM H2O2; for Effect on cell responses mediated with 1 mM H2O2: src kinase modulators
From the text: In this study, all optical responses were monitored with a wavelength interrogation system. The RWG biosensor is comprised of three major components for bioassay applications: an Epic™ sensor microplate, an RWG detector, and a liquid handling system. The sensor microplate consists of a glass bottom plate attached to a plastic holy plate of a given SBS format (e.g., 96-well or 384-well), which enables high throughput screening. In a 96 well Epic™ sensor microplate, each well contains one RWG sensor of approximately 3×3 mm^2. The RWG sensor consists of a thin film of dielectric material on the grating presenting glass substrate.
The wavelength interrogation detector system is centered on integrated fiber optics. A broadband light source, generated through a fiber optic and a collimating lens at nominally normal incidence through the bottom of the microplate, is used to illuminate a small region of the grating surface. A detection fiber for recording the reflected light is bundled with the illumination fiber. A series of 8 illumination/detection heads are arranged in a linear fashion, so that reflection spectra are collected from all 8 wells within the same column of a microplate at once. With the spatial-controlled movement, the whole plate is moving across the illumination/detection heads so that each sensor can be addressed multiple times, and each column be addressed in sequence. A series of spectra of the reflected lights are collected and used for analysis. Since this detection system measures the wavelength shift of the reflected lights induced by the cell response in response to stimulation, this approach is referred to the wavelength interrogation system.

[4] = system: protease activated receptors PAR1 and PAR2; experiment: Fluo-3 Ca2+ mobilization assay with PAR agonists; format: cell-based, human
Experimental: A431 at passage 3 to 5 were grown in Costar™ 96 well clear cell culture microplates until ˜95% confluency, washed twice and starved overnight with the DMEM only, washed with 1×HBSS (1× regular Hank's balanced salt solution, 20 mM HEPES buffer, pH 7.0) in the presence of 2.5 mM probenicid, and labeled in the same buffer containing 4 μM Fluo-3 for 1 hour at room temperature. The cells were then washed twice with buffer, maintained with 100 μl 1×HBSS containing 2.5 mM probenicid. The assay was initiated by transferring 50 μl PAR agonist solution to the cell plate, and calcium signal was recorded over 6 minutes with a 6 sec interval using HTS7000 BioAssay Reader (PerkinElmer Life Science, Boston, Mass.). The assays were carried out at room temperature in order to allow direct comparison with optical sensing data.

[5] = system: endogenous GPCRs in A431 cells; experiment: DMR optical biosensor profiling of GPCR agonists; format: cell-based, human; settings: quiescent A431; first class = Gq-type, second = Gs-type, third = Gi-type, fourth = no significant DMR
Experimental: Human epidermoid carcinoma A431 cells (American Type Cell Culture) were grown in Dulbecco's modified Eagle's medium (DMEM) supplemented with 10% fetal bovine serum (FBS), 4.5 g/liter glucose, 2 mM glutamine, and antibiotics. ˜3-7.5×10^4 cells at passage 3 to 5 suspended in 200 μl the DMEM medium containing 10% FBS were placed in each well of a 96 well microplate. Similarly ˜1-2×10^4 cells in 50 μl the growth medium were placed in each well of a 384 well microplate. After cell seeding, the cells were cultured at 37° C. under air/5% CO2 until ˜95% confluency was reached (˜2-4 days).
A Corning® Epic™ angular interrogation system with transverse magnetic or p-polarized TM0 mode was used for all studies. Several extra actions were taken to minimize the unwanted effects. First, to minimize the bulk index changes when a compound solution is introduced, 1×HBSS buffer without any probenecid was used to dilute all the compounds, whereas the DMEM buffer only was used to starve the cells. Secondly, to facilitate the cell responses as well as to rapidly reach a steady state when the sensor plates having cells were placed in the system at room temperature, the cells were pre-starved with the DMEM buffer without any FBS for a prolonged period of time (typically 20±2 hours), and the quiescent cells were directly used for assays without any wash.
For kinetics measurements, the cultured cells (˜95% confluency) were starved for about 20 hours with DMEM alone at 37° C. under air/5% CO2. Afterwards, the sensor microplate containing cells was placed into the optical system, and the cell responses were recorded before and after addition of a solution at room temperature. […] All studies were carried out at room temperature with the lid of the microplate on except for a short period of time (˜seconds) when the solution was introduced, in order to minimize the effect of temperature fluctuation and evaporative cooling. The unit of the responses indicated herein was a change in pixel of the central position of the resonant band of each sensor as imaged by a CCD camera; 1 unit equals to ˜5.82×10^−4 refractive index changes, based on an experimental normalization protocol, which uses the concentration-dependent responses of both glycerol and dimethyl sulfoxide.
The panel of agonists were used individually to stimulate quiescent A431 cells. The dose-dependent and kinetic responses were recorded and analyzed. In a typical kinetic measurement, the angular shift of resonant lights of each sensor induced by an agonist is monitored in real time and plotted as a function of time. An increased signal (P-DMR) means an increase in the amount of bio-molecules within the sensing volume (˜120 nm); conversely, a decreased signal (N-DMR) means a decrease in the amount of bio-molecules within the sensing volume. The sensing volume, also known as penetration depth, is an intrinsic property of the coupled light within the waveguide film, which creates an evanescent wave extending into the cell layer and the medium.

Compound: C[S+](C)[O-] [DMSO, dimethyl sulfoxide]
- TM0 mode resonance band image (CHO cells; 18% DMSO, confluency above 70%): DMSO-induced resonance band broadening
- PWHM of TM0 resonant peak over time (CHO cells; 18% DMSO, cell density below ~25%): no change in the PWHM value over time
- PWHM of TM0 resonant peak over time (CHO cells; 18% DMSO, confluency >70%): an initial increase in PWHM followed by decreasing PWHM value
- DMSO-induced time-dependent response of cell layer, event D (CHO cells; DMSO 20%): a prolonged and decreased signal due to the loss of proteins or other biological molecules of cells caused by the toxicity of high concentrations of DMSO
- DMSO-induced time-dependent response of cell layer (CHO cells; DMSO concentration <20%): the response is almost featureless
- TM0 mode resonance band image (CHO cells; ~15% DMSO, ~95% confluency): a second resonance band appearing
- TM0 mode resonance band image, dependence on DMSO concentration (CHO cells; ~95% confluency, 25 min treatment): only higher concentrations cause significant cell toxicity
- Effect of pretreatment on 32 nM EGF-induced response [1]: a little effect on the EGF-induced response

Compound: CN(C)CCCn1cc(C2=C(c3c[nH]c4ccccc34)C(=O)NC2=O)c2ccccc21 [GF 109203x]
- Effect of pretreatment on thrombin-mediated DMR signal [2]: no obvious effect on both thrombin- and trypsin-mediated DMR signal
- Effect of pretreatment on trypsin-mediated DMR signal [3]: no obvious effect on both thrombin- and trypsin-mediated DMR signal
- Effect of pretreatment on 32 nM EGF-induced response [1]: partial attenuation on the response

Compound: OO [H2O2, hydrogen peroxide]
- DMR signal (shift in incident angle) (quiescent A431 cells; 1 mM H2O2): triggered significant mass redistribution within the sensing volume of the sensors
- PWHM of resonant peak of TM0 mode (quiescent A431 cells; 1 mM H2O2): slightly increased the PWHM of the resonant peak of TM0 mode
- DMR signal (quiescent A431 cells; high redox state cells): a characteristic of cells undergoing apoptosis
- DMR signal (quiescent A431 cells; low redox state cells): a typical DMR signal for the low redox state of cells
- DMR signal and Live/Dead cell staining (quiescent A431 cells; H2O2 at or above 16 mM): the cells treated with high doses of H2O2 undergo apoptosis
- DMR signal (wavelength shift) (quiescent A431 cells; H2O2 at or below about 8 mM): a typical curve that consists of two major events: an initial peak and a prolonged increased mass signal

Compound: Cc1ccc(-c2nn(C(C)(C)C)c3ncnc(N)c23)cc1 [PP1]
- Effect on cell responses mediated with 1 mM H2O2 (quiescent A431 cells): significantly suppressed the H2O2-mediated cell responses
- Effect of pre-treatment on EGF-induced P-DMR and N-DMR signals ([1]; starved A431 cells, 8 nM EGF, 30-minute pretreatment, GH 0.5 ng/ml, PD98059 0.1 mM, PP1 1 μM, wortmannin 0.1 μM, DIP 50 μM): significantly reduced both the binding and DMR signals

Compound: CC(C)(C)n1nc(-c2ccc(Cl)cc2)c2c(N)ncnc21 [PP2]
- Effect on cell responses mediated with 1 mM H2O2 (quiescent A431 cells): significantly suppressed the H2O2-mediated cell responses

Compound: Nc1ncnc2c1cnn2-c1ccccc1 [PP3]
- Effect on cell responses mediated with 1 mM H2O2 (quiescent A431 cells): did not affect the responses

Compound: C/C1=C/C(=O)O[C@@H]2C[C@@H](CC[C@H](C)/C=C\C=C\CC1)O[C@@](O)([C@@H]1CSC(=O)N1)C2 [latrunculin A]
- Effect of pretreatment on thrombin-mediated DMR signal [2]: completely blocked either thrombin- or trypsin-mediated DMR signal
- Effect of pretreatment on trypsin-mediated DMR signal [3]: completely blocked either thrombin- or trypsin-mediated DMR signal
- Effect of pretreatment on 32 nM EGF-induced response [1]: totally abolished the N-DMR signal

Compound: COC(=O)Nc1nc2ccc(C(=O)c3cccs3)cc2[nH]1 [nocodazole]
- Effect of pretreatment on thrombin-mediated DMR signal [2]: neither a stabilizing polymeric F-actin agent phalloidin nor a microtubule disrupter nocodazole had significant effect
- Effect of pretreatment on trypsin-mediated DMR signal [3]: neither a stabilizing polymeric F-actin agent phalloidin nor a microtubule disrupter nocodazole had significant effect
- Effect of pretreatment on 32 nM EGF-induced response [1]: hardly any effect on the EGF-induced response

Compound: SFFLR-amide [PAR1-AP]
- Effect of preceding stimulation on trypsin-induced [Ca2+]i elevation ([4]; interval 6 min, 200 nM trypsin): significantly attenuated but not completely eliminates the trypsin-induced [Ca^2+]i elevation
- Maximal [Ca2+]i elevation ([4]; quiescent A431, Fluo-3): 74.3±3.9%
- [Ca2+]i elevation after preceding stimulation with thrombin ([4]; thrombin 40 unit/ml first, interval 6 min): 32±4.3%
- Effect of preceding stimulation on trypsin-induced DMR signal ([3]; interval about 1 hour): significantly suppresses but not completely eliminates the trypsin-induced DMR signal
- Class of optical signature (DMR) induced by agonist [5]: first class of optical signatures
